As a reminder, the EC50 is the concentration giving half of the maximal effect. A lower EC50 goes with greater potency.

human GPR43, sequence (O15552 whole entry): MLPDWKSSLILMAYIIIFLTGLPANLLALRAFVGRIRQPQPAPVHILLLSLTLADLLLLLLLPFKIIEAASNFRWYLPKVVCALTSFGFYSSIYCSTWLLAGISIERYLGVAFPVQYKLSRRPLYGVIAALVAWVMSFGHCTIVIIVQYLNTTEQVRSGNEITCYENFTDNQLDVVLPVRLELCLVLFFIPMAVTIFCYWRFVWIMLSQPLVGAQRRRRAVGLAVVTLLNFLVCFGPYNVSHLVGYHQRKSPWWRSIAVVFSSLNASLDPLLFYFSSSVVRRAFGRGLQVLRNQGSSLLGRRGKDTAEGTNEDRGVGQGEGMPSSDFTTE

This assay concerns the target human GPR43 (Homo sapiens (Human), UniProt O15552). The assay can be described thus: Ca-Flux functional assay: determination of agonist/positive allosteric modulator (PAM) activity. It is filed as cell-based. As to conditions: CHO-K1 Gα16 cells stably expressing human GPR43; compound added with EC20 sodium acetate; intracellular Ca2+ by FLIPR; does not distinguish agonist from PAM. Summed up:
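CHO-K1 Gα16 cells stably expressing human GPR43, loaded with Calcium 5 dye 1 h; compounds (10-point half-log from 10 μM) added with sodium acetate at EC20. FLIPR calcium signal gave EC50, two wells per point; agonists and PAMs not distinguished.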
In turn, `COc1ccc(S(=O)(=O)c2c(N)[nH]c3c(N4CCO[C@@H](C)C4)nc(C)nc23)c(F)c1` [Example 233, 7-(2-fluoro-4-methoxybenzenesulfonyl)-2-methyl-4-[(2S)-2-methylmorpholin-4-yl]-5H-pyrrolo[3,2-d]pyrimidin-6-amine] registered a concentration giving a half-maximal response (EC50) of 3 nM.

On to `CC1(C)CN(c2nncc3c(S(=O)(=O)c4ccccc4F)c(N)[nH]c23)CCO1` [Example 234, 7-(2,2-dimethylmorpholin-4-yl)-3-(2-fluorobenzenesulfonyl)-1H-pyrrolo[2,3-d]pyridazin-2-amine], for which the 50% effective concentration (EC50) came out at 69 nM.

For the compound `Cc1nc(N2CCO[C@@H](C)C2)c2[nH]c(N)c(S(=O)(=O)c3ccc(Cl)cc3F)c2n1` [Example 235, 7-(4-chloro-2-fluorobenzenesulfonyl)-2-methyl-4-[(2S)-2-methylmorpholin-4-yl]-5H-pyrrolo[3,2-d]pyrimidin-6-amine], the EC50 was 2 nM.

The compound `CC1CN(c2ncnc3c(Sc4ccccc4)c(N)[nH]c23)CCO1` (stereo not shown) [Example 236, 4-(2-methylmorpholin-4-yl)-7-(phenylsulfanyl)-5H-pyrrolo[3,2-d]pyrimidin-6-amine] showed an EC50 of 42 nM.

`Cc1nc(N2CCOC3(CCC3)C2)c2[nH]c(N)c(S(=O)(=O)c3ccccc3F)c2n1` [Example 237, 7-(2-fluorobenzenesulfonyl)-2-methyl-4-{5-oxa-8-azaspiro[3.5]nonan-8-yl}-5H-pyrrolo[3,2-d]pyrimidin-6-amine]: the midpoint of the response, the EC50, lay at 8 nM.

For `CSc1nc(N2CCOC(C)C2)c2[nH]c(N)c(S(=O)(=O)c3ccccc3)c2n1` (stereo not shown) [Example 238, 7-(benzenesulfonyl)-4-(2-methylmorpholin-4-yl)-2-(methylsulfanyl)-5H-pyrrolo[3,2-d]pyrimidin-6-amine], a half-maximal effect (EC50) was put at 18 nM.

`Cc1nc(N2CCO[C@@H](C)C2)c2[nH]c(N)c(S(=O)(=O)c3ccc(Br)cc3F)c2n1` [Example 239, 7-(4-bromo-2-fluorobenzenesulfonyl)-2-methyl-4-[(2S)-2-methylmorpholin-4-yl]-5H-pyrrolo[3,2-d]pyrimidin-6-amine] showed an EC50 of 2 nM.

Compound `Cc1nc(N2CCO[C@@H](C)C2)c2[nH]c(N)c(S(=O)(=O)c3ccc(Br)cc3N3CCO[C@@H](C)C3)c2n1` [Example 240, 7-{4-bromo-2-[(2S)-2-methylmorpholin-4-yl]benzenesulfonyl}-2-methyl-4-[(2S)-2-methylmorpholin-4-yl]-5H-pyrrolo[3,2-d]pyrimidin-6-amine] yielded an EC50 of 125 nM.

`COc1ccc(S(=O)(=O)c2c(N)[nH]c3c(N4CCOC(C)(C)C4)nc(C)nc23)c(F)c1` [Example 241, 4-(2,2-dimethylmorpholin-4-yl)-7-(2-fluoro-4-methoxybenzenesulfonyl)-2-methyl-5H-pyrrolo[3,2-d]pyrimidin-6-amine] had an EC50 of 2 nM.

Turning to `Cc1nc(OC(C)C)c2[nH]c(N)c(S(=O)(=O)c3ccccc3)c2n1` [Example 242, 7-(benzenesulfonyl)-2-methyl-4-(propan-2-yloxy)-5H-pyrrolo[3,2-d]pyrimidin-6-amine], the EC50 came to 51 nM.

The compound `CCC(Oc1nc(C)nc2c(S(=O)(=O)c3ccccc3)c(N)[nH]c12)C1CC1` (stereo not shown) [Example 243, 7-(benzenesulfonyl)-4-(1-cyclopropylpropoxy)-2-methyl-5H-pyrrolo[3,2-d]pyrimidin-6-amine] displayed an EC50 of 11 nM.

Take `CC[C@@H](C)Oc1nc(C)nc2c(S(=O)(=O)c3ccccc3)c(N)[nH]c12` [Example 244, 7-(benzenesulfonyl)-4-[(2R)-butan-2-yloxy]-2-methyl-5H-pyrrolo[3,2-d]pyrimidin-6-amine]: the EC50 is 31 nM.

For `Cc1nc(OCC2CC2(C)C)c2[nH]c(N)c(S(=O)(=O)c3ccccc3)c2n1` (stereo not shown) [Example 245, 7-(benzenesulfonyl)-4-[(2,2-dimethylcyclopropyl)methoxy]-2-methyl-5H-pyrrolo[3,2-d]pyrimidin-6-amine], a half-maximal effect (EC50) was put at 57 nM.

Values taken from patent US10059713B2 (Takeda Pharmaceutical Company Limited, priority 2014, dated 2018).
